Columns and labels:
[1] = system: rat liver mitochondria (RLM); test: Mitochondrial transmembrane electric potential (ΔΨ) of RLM, safranine fluorescence; type: biochemical
Description: In an embodiment, and as an example, AntiOxCINs and MitoQ toxicity effects on the mitochondrial bioenergetics, namely on RLM ΔΨ and mitochondrial respiration parameters, were measured. The […] represents the main component of the electrochemical gradient generated by mitochondrial respiration and accounts for more than 90% of the total available energy. For mitochondrial respiration assays, glutamate/malate (for complex I) and succinate (for complex II) were used as substrates. In addition, the mitochondrial oxidative phosphorylation coupling index, known as respiratory control ratio (RCR, state 3/state 4 respiration) and ADP/O index (the coupling between ATP synthesis and oxygen consumption) were also calculated. AntiOxCINs and MitoQ were tested at antioxidant-relevant concentrations, with 10 μM being the highest concentration.
In an embodiment, the evaluation of AntiOxCINs functional mitochondrial toxicity profile was performed in rat liver mitochondria (RLM). […] The protein concentration was determined by the biuret assay using BSA as a standard.
Then, 1 μM FCCP was added at the end of all experiments to depolarize mitochondria. ΔΨ was calculated using a calibration curve obtained when RLM were incubated in a K^+-free reaction medium containing 200 mM sucrose, 1 mM NaH2PO4, 10 mM Tris (pH 7.4) and 10 μM EGTA, supplemented with 0.4 μg valinomicin. […] “Repolarization” corresponded to the recovery of membrane potential after the complete phosphorylation of ADP added. Lag phase reflected the time required to phosphorylate the added ADP. […] Data are means±SEM of five independent experiments.

[2] = Iron (II) chelating properties, ferrozine assay; type: biochemical; details: 100 μM, EDTA=100%, FIG. 2
Description: In an embodiment, AntiOxCINs iron (II) chelating properties were evaluated by the ferrozine assay using ethylenediaminetetracetic acid (EDTA) as reference.
In an embodiment, AntiOxCINs iron chelating properties were evaluated by the spectrophotometric ferrozine method performed in a multiplate reader (Powerwave XS Microplate Reader) of Bio-Tech instruments.
In an embodiment, the AntiOxCINs iron chelating properties were evaluated as follows: in each well, a solution of the test compound (100 μM) and ammonium iron (II) sulphate in ammonium acetate (20 μM) were added, incubated for 10 min and the absorbance was read at 562 nm. Then, a freshly prepared solution of ferrozine (5 mM) was added to each well (96 μM final concentration). After a new incubation at 37° C. for 10 min period, the absorbance of [Fe(ferrozine)3]^2+ complex was measured at 562 nm. Blank wells were run using DMSO instead of the test compounds. EDTA was used as a reference. All compounds were tested at a final concentration of 100 μM. The absorbance of the first reading was subtracted to the final values to abolish any absorbance due to the test compounds. Data are means±SEM of three independent experiments and are expressed as % of Fe(II) chelation (EDTA=100%).

SMILES	initial slight hyperpolarization ([1]; 2.5 μM) [mV]	ADP-induced depolarization (ΔΨ in - mV) ([1]; glutamate/malate, 2.5 μM) [mV]	Lag Phase ([1]; glutamate/malate, 2.5 μM) [s]	Maximum potential (ΔΨ in - mV) ([1]; glutamate/malate, 2.5 μM) [mV]	Repolarization Potential (ΔΨ in - mV) ([1]; glutamate/malate, 2.5 μM) [mV]	ADP-induced depolarization (ΔΨ in - mV) ([1]; glutamate/malate, 5 μM) [mV]	Lag Phase ([1]; glutamate/malate, 5 μM) [s]	Maximum potential (ΔΨ in - mV) ([1]; glutamate/malate, 5 μM) [mV]	Repolarization Potential (ΔΨ in - mV) ([1]; glutamate/malate, 5 μM) [mV]	ADP-induced depolarization (ΔΨ in - mV) ([1]; glutamate/malate, 10 μM) [mV]	Lag Phase ([1]; glutamate/malate, 10 μM) [s]	Maximum potential (ΔΨ in - mV) ([1]; glutamate/malate, 10 μM) [mV]	Repolarization Potential (ΔΨ in - mV) ([1]; glutamate/malate, 10 μM) [mV]	ADP-induced depolarization (ΔΨ in - mV) ([1]; succinate, 2.5 μM) [mV]	Lag Phase ([1]; succinate, 2.5 μM) [s]	Maximum potential (ΔΨ in - mV) ([1]; succinate, 2.5 μM) [mV]	Repolarization Potential (ΔΨ in - mV) ([1]; succinate, 2.5 μM) [mV]	ADP-induced depolarization (ΔΨ in - mV) ([1]; succinate, 5 μM) [mV]	Lag Phase ([1]; succinate, 5 μM) [s]	Maximum potential (ΔΨ in - mV) ([1]; succinate, 5 μM) [mV]	other results
CS(=O)(=O)[O-].O=C(/C=C/c1ccc(O)c(O)c1)NCCCCCCCC[P+](c1ccccc1)(c1ccccc1)c1ccccc1 [AntiOxCIN3, (E)-(8-(3-(3,4-dihydroxyphenyl)acrylamido)octyl)triphenylphosphoniummethanesulfonate]	10	199.4 ± 7.4	65.8 ± 6.6	238.0 ± 9.8	234.8 ± 10.3	200.7 ± 5.5	68.2 ± 9.6	238.9 ± 8.6	235.0 ± 8.4	302.5 ± 6.3	73.8 ± 12.1	238.0 ± 6.7	231.5 ± 7.2	171.5 ± 7.3	84.6 ± 16.7	191.2 ± 9.1	186.7 ± 9.3	174.5 ± 7.7	92.0 ± 10.3	193.3 ± 7.6	Repolarization Potential (ΔΨ in - mV) ([1]; succinate, 5 μM): 190.4 ± 8.3 mV; ADP-induced depolarization (ΔΨ in - mV) ([1]; succinate, 10 μM): 172.2 ± 7.5 mV; Lag Phase ([1]; succinate, 10 μM): 79.8 ± 17.6 s; Maximum potential (ΔΨ in - mV) ([1]; succinate, 10 μM): 189.7 ± 7.8 mV; Repolarization Potential (ΔΨ in - mV) ([1]; succinate, 10 μM): 184.2 ± 7.6 mV
CS(=O)(=O)[O-].O=C(/C=C/c1cc(O)c(O)c(O)c1)NCCCCCCCC[P+](c1ccccc1)(c1ccccc1)c1ccccc1 [AntiOxCIN5, (E)-(8-(3-(3,4,5-trihydroxyphenyl)acrylamido)octyl)triphenylphosphonium methanesulfonate]	25	207.5 ± 6.1	74.4 ± 10.7	249.8 ± 5.4	244.7 ± 5.9	207.5 ± 5.6	69.8 ± 13.3	244.7 ± 7.0	236.5 ± 6.8	184.6 ± 18.7	53.2 ± 7.6	215.1 ± 22.3	199.9 ± 26.0	177.2 ± 7.7	80.2 ± 11.8	196.2 ± 8.6	190.6 ± 7.8	173.6 ± 6.8	67.2 ± 13.4	190.1 ± 6.8	Repolarization Potential (ΔΨ in - mV) ([1]; succinate, 5 μM): 184.0 ± 7.1 mV; ADP-induced depolarization (ΔΨ in - mV) ([1]; succinate, 10 μM): 162.2 ± 7.7 mV; Lag Phase ([1]; succinate, 10 μM): 58.4 ± 10.2 s; Maximum potential (ΔΨ in - mV) ([1]; succinate, 10 μM): 180.8 ± 4.0 mV; Repolarization Potential (ΔΨ in - mV) ([1]; succinate, 10 μM): 168.4 ± 9.3 mV
CS(=O)(=O)[O-].O=C(/C=C/c1ccc(O)c(O)c1)NCCCCCCCCCC[P+](c1ccccc1)(c1ccccc1)c1ccccc1 [AntiOxCIN6, (E)-(10-(3-(3,4-dihydroxyphenyl)acrylamido)decyl)triphenylphosphonium methanesulfonate]	10	202.5 ± 5.7	73.2 ± 8.8	237.9 ± 5.9	233.3 ± 6.5	197.9 ± 5.0	75.2 ± 12.5	227.5 ± 6.5	220.7 ± 6.2	174.2 ± 16.8	47.8 ± 8.7	200.5 ± 16.80	185.3 ± 20.8	166.8 ± 6.1	77.8 ± 11.2	181.9 ± 6.2	177.7 ± 4.5	167.1 ± 5.7	83.4 ± 11.5	178.3 ± 4.7	ΔΨ in succinate-energized mitochondria ([1]; AntiOxCIN6 above 5 μM, AntiOxCIN7 10 μM): significant decrease of ΔΨ; Repolarization Potential (ΔΨ in - mV) ([1]; succinate, 5 μM): 178.1 ± 5.1 mV; ADP-induced depolarization (ΔΨ in - mV) ([1]; succinate, 10 μM): 143.6 ± 11.0 mV; Lag Phase ([1]; succinate, 10 μM): 62.2 ± 11.2 s; Maximum potential (ΔΨ in - mV) ([1]; succinate, 10 μM): 151.7 ± 9.3 mV; Repolarization Potential (ΔΨ in - mV) ([1]; succinate, 10 μM): 149.0 ± 11.2 mV
O=C(O)/C=C/c1ccc(O)c(O)c1 [Caffeic acid, caffeic acid, reference compound]																					iron (II) chelation [2]: able to chelate ferrous iron alike EDTA
